Legend:
female mice = assay: skin sensitization test based on the LLNA (Local Lymph Node Assay), SI value by BrdU intake; format: in vivo; settings: test substance 50.0 W/v % in acetone/olive oil 4:1, 25 μL to both auricles once a day for 3 days, SI less than 3 = negative
Experimental: The individuals remaining after the categorization were excluded from the test.
The test substance was weighed in a measuring flask, and the volume of the test substance was adjusted to 1 mL with the medium. The thus-prepared test substance preparation was placed in a light-shielded airtight container (made of glass).
This treatment was performed once a day for three consecutive days.
The surrounding tissue of each auricular lymph node was removed, and the auricular lymph nodes from both the auricles were collectively weighed.
After returning the auricular lymph nodes to room temperature, the auricular lymph nodes were mashed with the gradual addition of physiological saline, and suspended therein. The thus-obtained suspension was filtrated and thereafter dispensed into the wells of a 96-well microplate, with 3 wells being used per individual. The thus-dispensed suspensions were measured for intake of BrdU by the ELISA method. […] A multiplate reader (FLUOSTAR OPTIMA, product of BMG LABTECH Inc.) was used to measure the absorbance of each well (OD: 370 nm to 492 nm, the intake of BrdU), and the average of the absorbance of the 3 wells for each individual was used as the measurement of BrdU for the individual.

[1] = evaluation in Material Safety Data Sheet; cited from earlier work

Row | Compound | SI values in LLNA test (female mice) | skin sensitization in MSDS [1]
1 | C=C(C)C(=O)OCCOCCOC(=O)C(=C)C [a1, diethyleneglycol dimethacrylate] | 1.1 | –
2 | caprolactone-modified dipentaerythritol hexaacrylate [a2] | – | Negative in MSDS
3 | polypropylene glycol diacrylate [a5] | 1.5 | –

Reference: patent US9120946B2, “Active energy ray curing type composition, container that accommodates composition, inkjet discharging device having container, and cured matter” (RICOH COMPANY, LTD., priority 2013, dated 2015)
